According to patent US11793849B2, “Method of Chinese herbal medicine extract used for treating multiple diseases caused by drug resistant bacteria infection” (priority 2016, dated 2023):
Values after ≈ are worked out from the molar mass of the structure shown. Like-named read-outs stand apart in the source and are kept apart here.

Tested on: MDRAB
Assay: MIC determination, microdilution broth method
Type: cell-based, Acinetobacter baumannii
Conditions: Acinetobacter baumannii; for MIC: read-out: MIC
Experimental: Determination methods of a Minimal Inhibitory Concentration (MIC) and a Minimum Bactericidal Concentration (MBC) of a test product: the MIC and the MBC of the Pithecellobium clypearia Benth water or ethanol extract to the MDRAB are determined by a microdilution broth method. And it is operated by referring to the microdilution broth method recommended by National Committee for Clinical Laboratory Standards (NCCLS).

C[C@@H](O)[C@H]1C(=O)N2C(C(=O)O)=C(SCCN=CN)C[C@H]12 [IMP, imipenem]
MIC (strain A1, EA=60% ethanol extract): 1 µg/mL (≈ 3.34 µM) | MIC (strain A1, EA=95% ethanol extract): 1 µg/mL (≈ 3.34 µM) | MIC (strain A1, single use, EA=10% ethanol extract): 1 µg/mL (≈ 3.34 µM) | MIC (strain A1, single use, EA=water extract): 1 µg/mL (≈ 3.34 µM) | MIC (strain A2, EA=60% ethanol extract): 32 µg/mL (≈ 107 µM) | MIC (strain A2, EA=95% ethanol extract): 32 µg/mL (≈ 107 µM) | MIC (strain A2, single use, EA=10% ethanol extract): 32 µg/mL (≈ 107 µM) | MIC (strain A2, single use, EA=water extract): 32 µg/mL (≈ 107 µM) | MIC (strain A3, EA=60% ethanol extract): 32 µg/mL (≈ 107 µM) | MIC (strain A3, EA=95% ethanol extract): 32 µg/mL (≈ 107 µM) | MIC (strain A3, single use, EA=10% ethanol extract): 32 µg/mL (≈ 107 µM) | MIC (strain A3, single use, EA=water extract): 32 µg/mL (≈ 107 µM) | MIC (strain A4, EA=60% ethanol extract): 8 µg/mL (≈ 26.7 µM) | MIC (strain A4, EA=95% ethanol extract): 8 µg/mL (≈ 26.7 µM) | MIC (strain A4, single use, EA=10% ethanol extract): 8 µg/mL (≈ 26.7 µM) | MIC (strain A4, single use, EA=water extract): 8 µg/mL (≈ 26.7 µM) | MIC (strain A5, EA=60% ethanol extract): 32 µg/mL (≈ 107 µM) | MIC (strain A5, EA=95% ethanol extract): 32 µg/mL (≈ 107 µM) | MIC (strain A5, single use, EA=10% ethanol extract): 32 µg/mL (≈ 107 µM) | MIC (strain A5, single use, EA=water extract): 32 µg/mL (≈ 107 µM) | MIC (strain A6, EA=60% ethanol extract): 32 µg/mL (≈ 107 µM) | MIC (strain A6, EA=95% ethanol extract): 32 µg/mL (≈ 107 µM) | MIC (strain A6, single use, EA=10% ethanol extract): 32 µg/mL (≈ 107 µM) | MIC (strain A6, single use, EA=water extract): 32 µg/mL (≈ 107 µM) | MIC (strain A7, EA=60% ethanol extract): 32 µg/mL (≈ 107 µM) | MIC (strain A7, EA=95% ethanol extract): 32 µg/mL (≈ 107 µM) | MIC (strain A7, single use, EA=10% ethanol extract): 32 µg/mL (≈ 107 µM) | MIC (strain A7, single use, EA=water extract): 32 µg/mL (≈ 107 µM) | MIC (strain A8, EA=60% ethanol extract): 32 µg/mL (≈ 107 µM) | MIC (strain A8, EA=95% ethanol extract): 32 µg/mL (≈ 107 µM) | MIC (strain A8, single use, EA=10% ethanol extract): 32 µg/mL (≈ 107 µM) | MIC (strain A8, single use, EA=water extract): 32 µg/mL (≈ 107 µM) | MIC (strain A9, EA=60% ethanol extract): 32 µg/mL (≈ 107 µM) | MIC (strain A9, EA=95% ethanol extract): 32 µg/mL (≈ 107 µM) | MIC (strain A9, single use, EA=10% ethanol extract): 32 µg/mL (≈ 107 µM) | MIC (strain A9, single use, EA=water extract): 32 µg/mL (≈ 107 µM) | MIC (strain A10, EA=60% ethanol extract): 16 µg/mL (≈ 53.4 µM) | MIC (strain A10, EA=95% ethanol extract): 16 µg/mL (≈ 53.4 µM) | MIC (strain A10, single use, EA=10% ethanol extract): 16 µg/mL (≈ 53.4 µM) | MIC (strain A10, single use, EA=water extract): 16 µg/mL (≈ 53.4 µM) | MIC (strain A11, EA=60% ethanol extract): 32 µg/mL (≈ 107 µM) | MIC (strain A11, EA=95% ethanol extract): 32 µg/mL (≈ 107 µM) | MIC (strain A11, single use, EA=10% ethanol extract): 32 µg/mL (≈ 107 µM) | MIC (strain A11, single use, EA=water extract): 32 µg/mL (≈ 107 µM) | MIC (strain A12, EA=60% ethanol extract): 32 µg/mL (≈ 107 µM) | MIC (strain A12, EA=95% ethanol extract): 32 µg/mL (≈ 107 µM) | MIC (strain A12, single use, EA=10% ethanol extract): 32 µg/mL (≈ 107 µM) | MIC (strain A12, single use, EA=water extract): 32 µg/mL (≈ 107 µM) | MIC (strain A13, EA=60% ethanol extract): 32 µg/mL (≈ 107 µM) | MIC (strain A13, EA=95% ethanol extract): 32 µg/mL (≈ 107 µM) | MIC (strain A13, single use, EA=10% ethanol extract): 32 µg/mL (≈ 107 µM) | MIC (strain A13, single use, EA=water extract): 32 µg/mL (≈ 107 µM) | MIC (strain A14, EA=60% ethanol extract): 32 µg/mL (≈ 107 µM) | MIC (strain A14, EA=95% ethanol extract): 32 µg/mL (≈ 107 µM) | MIC (strain A14, single use, EA=10% ethanol extract): 32 µg/mL (≈ 107 µM) | MIC (strain A14, single use, EA=water extract): 32 µg/mL (≈ 107 µM) | MIC (strain A15, EA=60% ethanol extract): 32 µg/mL (≈ 107 µM) | MIC (strain A15, EA=95% ethanol extract): 32 µg/mL (≈ 107 µM) | MIC (strain A15, single use, EA=10% ethanol extract): 32 µg/mL (≈ 107 µM) | MIC (strain A15, single use, EA=water extract): 32 µg/mL (≈ 107 µM) | MIC (strain A16, EA=60% ethanol extract): 32 µg/mL (≈ 107 µM) | MIC (strain A16, EA=95% ethanol extract): 32 µg/mL (≈ 107 µM) | MIC (strain A16, single use, EA=10% ethanol extract): 32 µg/mL (≈ 107 µM) | MIC (strain A16, single use, EA=water extract): 32 µg/mL (≈ 107 µM) | MIC (strain A17, EA=60% ethanol extract): 16 µg/mL (≈ 53.4 µM) | MIC (strain A17, EA=95% ethanol extract): 16 µg/mL (≈ 53.4 µM) | MIC (strain A17, single use, EA=10% ethanol extract): 16 µg/mL (≈ 53.4 µM) | MIC (strain A17, single use, EA=water extract): 16 µg/mL (≈ 53.4 µM) | MIC (strain A18, EA=60% ethanol extract): 32 µg/mL (≈ 107 µM) | MIC (strain A18, EA=95% ethanol extract): 32 µg/mL (≈ 107 µM) | MIC (strain A18, single use, EA=10% ethanol extract): 32 µg/mL (≈ 107 µM) | MIC (strain A18, single use, EA=water extract): 32 µg/mL (≈ 107 µM) | MIC (strain A19, EA=60% ethanol extract): 32 µg/mL (≈ 107 µM) | MIC (strain A19, EA=95% ethanol extract): 32 µg/mL (≈ 107 µM) | MIC (strain A19, single use, EA=10% ethanol extract): 32 µg/mL (≈ 107 µM) | MIC (strain A19, single use, EA=water extract): 32 µg/mL (≈ 107 µM) | MIC (strain A20, EA=60% ethanol extract): 32 µg/mL (≈ 107 µM) | MIC (strain A20, EA=95% ethanol extract): 32 µg/mL (≈ 107 µM) | MIC (strain A20, single use, EA=10% ethanol extract): 32 µg/mL (≈ 107 µM) | MIC (strain A20, single use, EA=water extract): 32 µg/mL (≈ 107 µM) | MIC50 (single use, 20 MDRABs, section of the 60% ethanol extract, read-out: MIC50): 32 µg/mL (≈ 107 µM) | MIC90 (single use, 20 MDRABs, section of the 60% ethanol extract, read-out: MIC90): 32 µg/mL (≈ 107 µM)
